According to PubChem BioAssay AID330 (DTP/NCI, 2004):
Several values for one entry are separate records, joined by “and”; a condition that tells them apart may be missing. Equal values may be shown once. Inconclusive results and toxic doses are left out.

System: P388 leukemia ip, CD2F1 mice, survival T/C
Experiment: NCI In Vivo Anticancer Drug Screen. Data for tumor model P388 Leukemia (intraperitoneal) in CD2F1 (CDF1) mice
Details: endpoint: median survival time, higher = longer survival
Summary of the method: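 Mice carrying the transplanted tumor received test compound or vehicle. Survival was recorded in each group, and the value is the treated-group measurement divided by that of the vehicle-treated control group.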

[1] = dose: 50.0 mg/kg/injection, schedule: Q01DX009 (ip), vehicle: saline with Tween-80
[2] = dose: 100.0 mg/kg/injection, schedule: Q01DX009 (ip), vehicle: saline with Tween-80
[3] = dose: 200.0 mg/kg/injection, schedule: Q01DX009 (ip), vehicle: saline with Tween-80
[4] = dose: 25.0 mg/kg/injection, schedule: Q01DX009 (ip), vehicle: saline
[5] = dose: 50.0 mg/kg/injection, schedule: Q01DX009 (ip), vehicle: saline
[6] = dose: 100.0 mg/kg/injection, schedule: Q01DX009 (ip), vehicle: saline
[7] = dose: 100.0 mg/kg/injection, schedule: Q01DX001 (ip), vehicle: Klucel (hydroxypropylcellulose) (HPC)
[8] = dose: 200.0 mg/kg/injection, schedule: Q01DX001 (ip), vehicle: Klucel (hydroxypropylcellulose) (HPC)
[9] = dose: 60.0 mg/kg/injection, schedule: Q01DX005 (ip), vehicle: saline with Tween-80
[10] = dose: 120.0 mg/kg/injection, schedule: Q01DX005 (ip), vehicle: saline with Tween-80
[11] = dose: 50.0 mg/kg/injection, schedule: Q01DX005 (ip), vehicle: Klucel (hydroxypropylcellulose) (HPC)
[12] = dose: 100.0 mg/kg/injection, schedule: Q01DX005 (ip), vehicle: Klucel (hydroxypropylcellulose) (HPC)
[13] = dose: 200.0 mg/kg/injection, schedule: Q01DX005 (ip), vehicle: Klucel (hydroxypropylcellulose) (HPC)

In the case of C1CNCOC1, the T/C (dose: 50.0 mg/kg/injection, schedule: Q04DX003 (ip), vehicle: saline) is reported as 120 % of control, the T/C (dose: 100.0 mg/kg/injection, schedule: Q04DX003 (ip), vehicle: saline) is reported as 117 % of control and the T/C (dose: 200.0 mg/kg/injection, schedule: Q04DX003 (ip), vehicle: saline) is reported as 123 % of control.

C[n+]1c(-c2cccc3ccccc23)c2cc(N)ccc2c2ccccc21 was tested, and the T/C (dose: 0.78 mg/kg/injection, schedule: Q01DX009 (ip), vehicle: water) was 110 % of control, the T/C (dose: 1.56 mg/kg/injection, schedule: Q01DX009 (ip), vehicle: saline) was 103 % of control and 113 % of control and the T/C (dose: 1.56 mg/kg/injection, schedule: Q01DX009 (ip), vehicle: water) was 119 % of control. The T/C (dose: 3.12 mg/kg/injection, schedule: Q01DX009 (ip), vehicle: saline) was 105 % of control, the T/C (dose: 6.25 mg/kg/injection, schedule: Q01DX009 (ip), vehicle: saline) was 112 % of control and 122 % of control and the T/C (dose: 12.0 mg/kg/injection, schedule: Q01DX009 (ip), vehicle: water) was 110 % of control. For the same compound, the T/C (dose: 12.5 mg/kg/injection, schedule: Q01DX009 (ip), vehicle: saline) was 117 % of control and 121 % of control.

For CCOC(=O)N1CC2C3CN(C(=O)OCC)C4CC3(C(=O)O)C1CC24C(=O)O, the T/C [1] was 109 % of control, the T/C [2] was 100 % of control and the T/C [3] was 102 % of control.

With FC(F)(F)c1cc(NC(=S)SC2CCCCC2)ccc1Cl the T/C [4] was 103 % of control, the T/C [5] was 100 % of control and 110 % of control and the T/C [6] was 107 % of control and 118 % of control. The T/C (dose: 200.0 mg/kg/injection, schedule: Q01DX009 (ip), vehicle: saline) was 121 % of control.

With Clc1cc(Cl)nc(N2CC2)n1 the T/C (dose: 5.0 mg/kg/injection, schedule: Q01DX009 (ip), vehicle: saline with Tween-80) was 116 % of control, the T/C (dose: 5.0 mg/kg/injection, schedule: Q04DX003 (ip), vehicle: saline with Tween-80) was 100 % of control and the T/C (dose: 10.0 mg/kg/injection, schedule: Q01DX009 (ip), vehicle: saline with Tween-80) was 100 % of control. The T/C (dose: 10.0 mg/kg/injection, schedule: Q04DX003 (ip), vehicle: saline with Tween-80) was 104 % of control and the T/C (dose: 20.0 mg/kg/injection, schedule: Q04DX003 (ip), vehicle: saline with Tween-80) was 118 % of control.

With Cc1nnc(Cc2ccco2)c2n[nH]c(C)c12 the T/C (dose: 50.0 mg/kg/injection, schedule: Q01DX009 (ip), vehicle: Klucel (hydroxypropylcellulose) (HPC)) was 96 % of control, the T/C (dose: 100.0 mg/kg/injection, schedule: Q01DX009 (ip), vehicle: Klucel (hydroxypropylcellulose) (HPC)) was 99 % of control and the T/C (dose: 200.0 mg/kg/injection, schedule: Q01DX009 (ip), vehicle: Klucel (hydroxypropylcellulose) (HPC)) was 100 % of control.

With CCS(=O)O the T/C (dose: 60.0 mg/kg/injection, schedule: Q01DX005 (ip), vehicle: saline) was 106 % of control, the T/C (dose: 120.0 mg/kg/injection, schedule: Q01DX005 (ip), vehicle: saline) was 112 % of control and the T/C (dose: 240.0 mg/kg/injection, schedule: Q01DX005 (ip), vehicle: saline) was 112 % of control.

In the case of [Cl][Mo]([Cl])([Cl])[Cl].[Cl][Mo]([Cl])([Cl])[Cl], the T/C [4] is reported as 104 % of control, the T/C [5] is reported as 103 % of control and the T/C [6] is reported as 99 % of control.

In the case of CC(OS(C)(=O)=O)C(Br)C(Br)C(C)OS(C)(=O)=O (centres undefined), the T/C [7] is reported as 168 % of control and the T/C [8] is reported as 176 % of control.

COCC1(CCC(C)=C(C)C)Nc2ccc(C(=O)O)cc2CC1Cl (centres undefined) was tested, and the T/C (dose: 1.25 mg/kg/injection, schedule: Q01DX005 (ip), vehicle: Klucel (hydroxypropylcellulose) (HPC)) was 98 % of control and the T/C (dose: 2.5 mg/kg/injection, schedule: Q01DX005 (ip), vehicle: Klucel (hydroxypropylcellulose) (HPC)) was 101 % of control.

For Cc1cccc(-c2nc3c(C)nc(-c4ccccc4)nc3n2Nc2ccccc2)c1, the T/C [7] was 87 % of control.

In the case of O=C(c1ccccc1)c1ccccc1NC(=O)C(F)(F)F, the T/C [1] is reported as 100 % of control, the T/C [2] is reported as 95 % of control and the T/C [3] is reported as 96 % of control.

Cc1ccccc1-[n+]1nc(-c2ccccc2)nn1-c1ccccc1 was tested, and the T/C (dose: 0.31 mg/kg/injection, schedule: Q01DX009 (ip), vehicle: saline with Tween-80) was 95 % of control, the T/C (dose: 0.63 mg/kg/injection, schedule: Q01DX009 (ip), vehicle: saline with Tween-80) was 104 % of control and the T/C (dose: 1.25 mg/kg/injection, schedule: Q01DX009 (ip), vehicle: saline with Tween-80) was 95 % of control.

With O=C1C=CC(=O)C2(CO)OC12 (centres undefined) the T/C (dose: 1.88 mg/kg/injection, schedule: Q04DX002 (ip), vehicle: saline with Tween-80) was 95 % of control and the T/C (dose: 3.75 mg/kg/injection, schedule: Q04DX002 (ip), vehicle: saline with Tween-80) was 102 % of control.

Nc1cccc(S(=O)(=O)Nc2ncc(Cl)cn2)c1.[Ag] was tested, and the T/C [5] was 93 % of control and the T/C [6] was 108 % of control.

With C[n+]1ccc2ccccc2c1-c1c2ccccc2cc[n+]1C the T/C (dose: 12.5 mg/kg/injection, schedule: Q01DX001 (ip), vehicle: saline) was 115 % of control, the T/C (dose: 25.0 mg/kg/injection, schedule: Q01DX001 (ip), vehicle: saline) was 101 % of control and the T/C (dose: 50.0 mg/kg/injection, schedule: Q01DX001 (ip), vehicle: saline) was 99 % of control.

With COC(SC)(C(=O)O)c1cc(-c2c(Cl)cccc2Cl)no1 (centres undefined) the T/C [9] was 96 % of control, the T/C [10] was 93 % of control and the T/C (dose: 240.0 mg/kg/injection, schedule: Q01DX005 (ip), vehicle: saline with Tween-80) was 112 % of control.

For O=Cc1c(-c2ccc(-c3ccccc3)cc2)nc2n1CCS2, the T/C [7] was 100 % of control and the T/C [8] was 97 % of control.

In the case of CCOC(=O)C(=C=[N-])[n+]1ccc(C)cc1, the T/C (dose: 6.25 mg/kg/injection, schedule: Q01DX009 (ip), vehicle: saline sonified) is reported as 90 % of control, the T/C (dose: 12.5 mg/kg/injection, schedule: Q01DX009 (ip), vehicle: saline sonified) is reported as 90 % of control and the T/C (dose: 25.0 mg/kg/injection, schedule: Q01DX009 (ip), vehicle: saline sonified) is reported as 90 % of control.

For O=C(NO)Nc1cc(Cl)cc(Cl)c1, the T/C [9] was 114 % of control and the T/C [10] was 114 % of control.

O=C(O)c1cccc(SS(=O)(=O)c2cccc(C(=O)O)c2)c1 was tested, and the T/C [11] was 109 % of control, the T/C [12] was 112 % of control and the T/C [13] was 107 % of control.

With Cc1nnc2cc1CCCCCCCCC2 the T/C [11] was 108 % of control, the T/C [12] was 107 % of control and the T/C [13] was 103 % of control.

With C=CCC(C(=O)OC)c1ccc(Cl)cc1 (centres undefined) the T/C (dose: 0.62 mg/kg/injection, schedule: Q01DX009 (ip), vehicle: saline) was 114 % of control, the T/C (dose: 1.25 mg/kg/injection, schedule: Q01DX009 (ip), vehicle: saline) was 98 % of control and the T/C (dose: 2.5 mg/kg/injection, schedule: Q01DX009 (ip), vehicle: saline) was 103 % of control.

With CCCCOCCOCCOCCOCCCN1C(=O)C2C3C=CC(C3)C2C1=O (centres undefined) the T/C [11] was 97 % of control and the T/C [12] was 100 % of control.

With C1CCC(NC2CCCCC2)CC1 the T/C (dose: 12.5 mg/kg/injection, schedule: Q01DX005 (ip), vehicle: saline) was 103 % of control, the T/C (dose: 23.7 mg/kg/injection, schedule: Q01DX005 (ip), vehicle: saline) was 100 % of control and the T/C (dose: 25.0 mg/kg/injection, schedule: Q01DX005 (ip), vehicle: saline) was 102 % of control. The T/C (dose: 35.6 mg/kg/injection, schedule: Q01DX005 (ip), vehicle: saline) was 100 % of control, the T/C (dose: 50.0 mg/kg/injection, schedule: Q01DX005 (ip), vehicle: saline) was 100 % of control and the T/C (dose: 53.3 mg/kg/injection, schedule: Q01DX005 (ip), vehicle: saline) was 100 % of control. For the same compound, the T/C (dose: 80.0 mg/kg/injection, schedule: Q01DX005 (ip), vehicle: saline) was 100 % of control, the T/C (dose: 100.0 mg/kg/injection, schedule: Q01DX005 (ip), vehicle: saline) was 93 % of control and the T/C (dose: 200.0 mg/kg/injection, schedule: Q01DX005 (ip), vehicle: saline) was 102 % of control.

C=C1C(=O)O[C@@H]2C[C@@H](C)[C@@H]3C=CC(=O)[C@@]3(C)[C@@H](OC(=O)CCCC(=O)O[C@H]3[C@@H]4C(=C)C(=O)O[C@@H]4C[C@@H](C)[C@@H]4C=CC(=O)[C@]43C)[C@H]12 was tested, and the T/C (dose: 0.39 mg/kg/injection, schedule: Q01DX005 (ip), vehicle: Klucel (hydroxypropylcellulose) (HPC)) was 101 % of control, the T/C (dose: 0.78 mg/kg/injection, schedule: Q01DX005 (ip), vehicle: Klucel (hydroxypropylcellulose) (HPC)) was 100 % of control and the T/C (dose: 1.56 mg/kg/injection, schedule: Q01DX005 (ip), vehicle: Klucel (hydroxypropylcellulose) (HPC)) was 103 % of control and 118 % of control. The T/C (dose: 3.12 mg/kg/injection, schedule: Q01DX005 (ip), vehicle: Klucel (hydroxypropylcellulose) (HPC)) was 116 % of control and the T/C (dose: 6.25 mg/kg/injection, schedule: Q01DX005 (ip), vehicle: Klucel (hydroxypropylcellulose) (HPC)) was 109 % of control.
